Assay results: the NIST ThermoML archive (doi:10.1021/je200111a)
Numbers after ± are expanded uncertainties.

What was measured:
[1] = refractive index (Na D-line) (dimensionless); conditions: 298.15 K; 101.33 kPa; Liquid; Standard Abbe refractometry
[2] = Liquid; for mass density: 298.15 K, 101.33 kPa; for vapor or sublimation pressure: Ebulliometric method (Recirculating still)

SMILES	refractive index [1]	mass density [2]	vapor or sublimation pressure ([2]; 358.35 K)	vapor or sublimation pressure ([2]; 411.05 K)	vapor or sublimation pressure ([2]; 366.55 K)	vapor or sublimation pressure ([2]; 366.65 K)	vapor or sublimation pressure ([2]; 427.62 K)	vapor or sublimation pressure ([2]; 427.65 K)	vapor or sublimation pressure ([2]; 353.75 K)	vapor or sublimation pressure ([2]; 403.75 K)
CCCCCO [pentan-1-ol]	1.4077 ± 0.0007	811.2 ± 0.4 kg/m3	13 ± 0.17 kPa	101.3 ± 1.8 kPa						
CCOC(=O)[C@H](C)O [(S)-(-)-ethyl lactate]	1.41057 ± 0.00072	1028.6 ± 0.2 kg/m3			13 ± 0.2 kPa	13 ± 0.2 kPa	101.3 ± 2 kPa	101.3 ± 2 kPa		
CC(C)CCO [3-methylbutan-1-ol]	1.4051 ± 0.0007	807.6 ± 0.4 kg/m3							13 ± 0.16 kPa	101.3 ± 1.7 kPa
